Legend:
[1] = tested on: HIV/EBOV pseudovirions (EBOV GP); format: cell-based, Zaire Ebolavirus
[2] = tested on: A549 cells
[3] = tested on: HIV/MARV pseudovirions (MARV GP); assay: microbe, parasite or virus in culture; format: cell-based, Marburgvirus; details: Human immunodeficiency virus 1, A549, 48 h, read-out: IC50 for MARV

Row | SMILES | antiviral activity against EBOV [1] | antiviral activity (anti-filovirus, words) [1] | cytotoxicity [2] | IC50 [3] [nM]
1 | Cc1c(Cc2ccccc2)c(=O)oc2cc(OCC(O)CNCCc3ccncc3)ccc12 (centres unmarked) [Compound 13, 3-benzyl-7-(2-hydroxy-3-((2-(pyridin-4-yl)ethyl)amino)propoxy)-4-methyl-2H-chromen-2-one] | best inhibitory activity on EBOV entry | – | – | –
2 | Cc1cc(=O)oc2cc(OCC(O)CN3CCC(C(N)=O)CC3)ccc12 (centres unmarked) [Compound 19, 1-(2-hydroxy-3-((4-methyl-2-oxo-2H-chromen-7-yl)oxy)propyl)piperidine-4-carboxamide] | – | lost most of the activity | – | –
3 | Cc1c(Cc2ccc(OC(F)(F)F)cc2)c(=O)oc2cc(OCC(O)CN3CCC(C(N)=O)CC3)ccc12 (centres unmarked) [Compound 32, 1-(2-hydroxy-3-((4-methyl-2-oxo-3-(4-(trifluoromethoxy)benzyl)-2H-chromen-7-yl)oxy)propyl)piperidine-4-carboxamide] | strongest antiviral activity against EBOV | – | low cytotoxicity | 1500
4 | NC(=O)C1CCN(CC(O)COc2ccc3c(C4CC4)cc(=O)oc3c2)CC1 (centres unmarked) [Compound 55, 1-(3-((4-cyclopropyl-2-oxo-2H-chromen-7-yl)oxy)-2-hydroxypropyl)piperidine-4-carboxamide] | – | lost most of the antiviral activity | – | –
5 | Cc1c(Cc2ccc(OC(F)(F)F)cc2)c(=O)oc2cc(OCC(O)CNc3nccs3)ccc12 (centres unmarked) [Compound 56, 7-(2-hydroxy-3-(thiazol-2-ylamino)propoxy)-4-methyl-3-(4-(trifluoromethoxy)benzyl)-2H-chromen-2-one] | – | strong activity | low cytotoxicity | –

— publication PMC7529935 (European journal of medicinal chemistry, 2020)
